Assay results published in patent publication US12377152B2, “Compounds for degrading alpha-synuclein aggregates and uses thereof” (APRINOIA THERAPEUTICS LIMITED, priority 2019, dated 2025).

How the values were obtained:
[1] = In vivo pharmacokinetic study; settings: mice; for AUC(0-t) / Cmax / Tmax / half-life: mouse
Method: To determine whether the compounds of the present disclosure are capable of crossing the blood brain barrier (BBB), example compound 132168 was administered to mice in a pharmacokinetic study (10 and 25 mg/kg, intravenous).
Animal Husbandry: Mice were housed at animal room environment with ventilation 15 times/hour, lighting 12 hours/day, temperature 20° C. to 24° C. and humidity 40% to 70%. The study rooms were disinfected and cleaned prior to the start of the study and the operation area was cleaned after each dosing or sampling during the study conduct. All animals had free access to food and water during the study. The animals had access to Certified Rodent Diet and water ad libitum. The nutritional composition and levels of contaminants of the diet and impurities and contaminants of the water were monitored by third organization. The health status of the animals was evaluated in accordance with accepted animal husbandry procedures and deemed suitable for experimental use.
Sample Collection & Processing: Approximately 110 μL of whole blood were collected from all animals via facial or cardiac puncture under anesthesia with Isoflurane into test tubes containing potassium ethylenediaminetetraacetate (K2EDTA) at 0.25, 0.5, 1, 2, 4, 8 and 24 hr post dose. Brian samples were collected at 0.25, 0.5, 1, 2, 4, 8 and 24 hours post dose. A perfusion with pre-cold saline will be conducted via cardiac puncture before brain collection. Blood samples were centrifuged at 2000 g at 4° C. for 5 minutes to obtain plasma samples by transferring the supernatants into new tubes. All plasma and brain samples were stored at approximately −70° C. until analysis.
Bioanalytical Method Development: The concentrations of compound in plasma and brain samples were determined using a liquid chromatography with tandem mass spectrometry (LC-MS/MS) based method.

α-synuclein [2] = target: T1, α-synuclein (Homo sapiens (Human), UniProt P37840); experiment: In vivo assay for degrading α-synuclein aggregates (transgenic Line61 mice); settings: 25 mpk, once intravenous, hemibrain, WES System
Method: Male transgenic Line61 mice at age of three-month-old were used for the study. Mice were treated once via intravenous injection with the compound 132168 (25 mpk). Plasma and brain samples were collected at 0.25, 0.5, 1, 2, 4, 8 and 24 h post treatment. Blood samples were collected via cardiac puncture into MiniCollect® 0.5 mL K2EDTA (Potassium ethylenediaminetetraacetic acid) tubes. The blood samples were centrifuged at 3000×g for 10 minutes at room temperature (22° C.). Plasma was transferred to a pre-labeled 1.5 ml LoBind Eppendorf tube (2 aliquot, each ˜[…]), frozen on dry ice and stored at −80° C. until analysis. For brain samples, a perfusion with 0.9% saline was performed before collection. Brain was weighed, hemisected on a cooled surface, weighed and snap frozen. The hemibrain was used for WES System analysis of human α-synuclein in soluble and insoluble fraction. Upon treatment of compound 132168, insoluble α-synuclein fraction decreases 30% compared to DMSO vehicle control, reflecting the reduction of insoluble α-synuclein aggregates.

α-synuclein aggregates = α-synuclein aggregates (Homo sapiens (Human), UniProt P37840); experiment: ReNcell VM α-synuclein aggregation assay; format: cell-based; settings: for DC50: ReNcell VM cells, read-out: Activity (DC50, concentration at which 50% of α-synuclein aggregates has been degraded)
Method: The ReNcell VM α-synuclein aggregation assay was conducted at Charles River Laboratories (CRL). ReNcell VM is an immortalized human neural progenitor cell line derived from the ventral mesencephalon region of the brain. ReNcell VM cells were selected as in vitro cellular model for the α-synuclein aggregation assay, based on their growth features, differentiation potential into terminally differentiated neurons and amenability to adenoviral transduction. Aggregated human wild type α-synuclein was overexpressed through adenoviral delivery. Aggregated α-synuclein was detected with the aggregate-selective anti-α-synuclein antibody MJFR14 using immunocytochemistry; total α-synuclein levels were detected with Syn205 (α/β-synuclein-specific antibody).
The ReNcell VM α-synuclein aggregation assay was applied for compound screening to identify compounds capable of degrading α-synuclein aggregates. […] Immunoreactivity toward aggregated (MJFR14) and total α-synuclein (Syn205) was quantified using high content-based segmentation of immunoactive areas in immunocytochemical images (performed with the IN Cell 2200 (GE Healthcare)), followed by quantification of immunofluorescent intensity (performed by CRL's developed algorithm using IN Cell Developer Toolbox software).
Percentage effect (PE): Inhibition in comparison to BLANK (0.1% DMSO).
PE=100−(signal of compound/average signal BLANK)×100
Compound-induced cytotoxicity (% remaining cells)
% remaining cells=(nuclei count of compound/average nuclei count of BLANK)×100

α-synuclein [3] = target: T1, α-synuclein; experiment: In vitro fluorometric α-synuclein binding assay; settings: 2 μM α-synuclein, 37° C., 1 hour, fluorescence
Method: (§1) (A) Expression and purification of recombinant wild-type human α-synuclein: 0.5 mM IPTG was used to induce production of wild type human α-synuclein by bacteria transformed with a full-length α-synuclein expression plasmid. After shaking at 16° C. for 20 hours, cell pellet was resuspended in lysis buffer (10 mM Tris, 1 mM EGTA, 0.75 mM NaCl, 1 mM PMSF, pH 7.5) and lysed by sonication followed by centrifugation (6000 g, 30 min, 4° C.). The supernatant was then boiled at 95° C. for 15 min with manual agitation by every 5 minutes, followed by centrifugation (6000 g, 30 min, 4° C.). Supernatant was dialyzed with (10 mM Tris, 1 mM EGTA, 50 mM NaCl, pH 7.5) buffer and concentrated with concentrator. The collected sample was loaded onto a Superdex200 column, the flow-through fraction was then loaded onto a Q-HP column. Collected fractions with α-synuclein eluates were pooled, concentrated and stored at −80° C.
(§2) (B) Preparation of aggregated α-synuclein: 5 mg/mL of α-synuclein in PBS buffer (pH 7.4) was incubated in tube with at 37° C. with shaking (700 rpm) for 5-10 days.
(C) In vitro fluorometric α-synuclein binding assays: 2 μM α-synuclein was incubated with serially diluted compound (three-fold serial dilutions, from 10 to 0.001 μM) in a 96-well plate at 37° C. for 1 hour. Fluorescence intensity was read by microplate spectrometer. Compound Kd values were calculated using the following equation: Y=Bmax*X/(Kd+X), where X is the concentration of compound; Y is the fluorescence signal of (compound+α-synuclein)−(compound+DMSO); and Bmax is the maximum signal.

α-synuclein [4] = target: T1, α-synuclein; experiment: PBB5 competition assay; format: binding; settings: 2 μM α-synuclein, 0.26 μM PBB5, 37° C., 1 hour
Method: as §1, §2
(D) PBB5 competition assay: 2 μM of α-synuclein was incubated with 0.26 μM 2-(4-(2-(methylamino)pyridine-5-yl)-1,3-butadiene-1-yl)benzothiazole-6-ol (PBB5) and serially diluted compound (three-fold serial dilution, from 10 to 0.001 μM) in a 96-well plate at 37° C. for 1 hour. Fluorescence intensity (excitation/emission=530/690 nm) of PBB5 was read by microplate spectrometer. Percentage of competition was calculated using the following equation: (Max−well of compound alone)/(Max−Min)*100%, where Max=(α-synuclein+PBB5) signals−(buffer+PBB5) signals; and Min=(buffer+PBB5) signals−(buffer+PBB5) signals. The IC50 value of each compound was calculated with GraphPad Prism software using the “4 Parameter Logistic Model or Sigmoidal Dose-Response Model”: Y=Bottom+(Top−Bottom)/(1+(IC50/X)^HillSlope)

SMILES	blood brain barrier (BBB) penetration ([1]; 10 and 25 mg/kg intravenous)	AUC(0-t) ([1]; Brain, 10 mg/kg intravenous)	Cmax ([1]; Brain, 10 mg/kg intravenous)	Tmax ([1]; Brain, 10 mg/kg intravenous)	half-life ([1]; Brain, 10 mg/kg intravenous)	AUC(0-t) ([1]; Brain, 25 mg/kg intravenous)	Cmax ([1]; Brain, 25 mg/kg intravenous)	Tmax ([1]; Brain, 25 mg/kg intravenous)	AUC(0-t) ([1]; Plasma, 10 mg/kg intravenous)	half-life ([1]; Plasma, 10 mg/kg intravenous)	AUC(0-t) ([1]; Plasma, 25 mg/kg intravenous)	half-life ([1]; Plasma, 25 mg/kg intravenous)	decrease of insoluble α-synuclein fraction compared to DMSO vehicle control (α-synuclein [2])	inhibition of MJFR14 immunoreactivity (α-synuclein aggregates; 6-day treatment, immunocytochemical images)	DC50 (α-synuclein aggregates)	Kd (α-synuclein [3])	IC50 (α-synuclein [4])
CN(C)c1ccc(-c2ccc(-c3nc4ccc(NCCCCCOc5ccc6c(c5)CN(C5CCC(=O)NC5=O)C6=O)cc4s3)c(C(F)(F)F)c2)cn1 (stereo not drawn) [Compound 132168]	able to penetrate BBB	1330 ng·h/mL	319 ng/mL	0.5 h	5.88 h	4070 ng·h/mL	581 ng/mL	4 h	17800 ng·h/mL	2.87 h	48700 ng·h/mL	2.12 h	30%	clear inhibition	10 to 900 nM	–	–
CN(C)c1ccc(-c2ccc(-c3nc4ccc(OCCOCCOc5ccc6c(c5)CN(C5CCC(=O)NC5=O)C6=O)cc4s3)cc2)cn1 (stereo not drawn) [Compound 163123]	–	–	–	–	–	–	–	–	–	–	–	–	–	–	> 10000 nM	260 nM	> 10000 nM
